Data taken from US20240148728A1, “NOVEL METHOD TO BLOCK IN[…] DEATH AND IL-1BETA SECRETION CAUSED BY […] UV I[…] GENETIC AND CHEMICAL INHIBITORS OF ZAKA AND THE NLRP1 INFLAMMASOME” (priority 2021, published 2024).
“Also recorded” adds a separate entry of the source.

Key:
ZAKα = ZAKα (Homo sapiens, UniProt Q9NYL2); details: cited from earlier work
NLRP1^DR = test: NLRP1 PYD-DR1 / NLRP1^DR phosphorylation (GFP fusion, immunoblot, PhosTag SDS-PAGE) in N-TERT cells; type: cell-based, human; details: NLRP1 KO N-TERT cells expressing GFP-tagged NLRP1^DR; various kinase inhibitors
Excerpt: (§1) The following antibodies were used in this study: cleaved PARP1 (Abclonal, #WH162766), Cleaved CASP3 (Abclonal, #WH154646), Full length GSDMD-FL (Abcam, #ab210070), IL1β p17 specific (CST, #83186S), CARD8 (Abcam, CARD8-NT: ab19485, CARD8-CT: ab241186), DPP9 (Abcam, ab226334), c-Myc (Santa Cruz Biotechnology, #sc-40), HA tag (Santa Cruz Biotechnology, #sc-805), GAPDH (Santa Cruz Biotechnology, #sc-47724), ASC (Adipogen, #AL-177), CASP1 (Santa Cruz Biotechnology, #sc-622), 11_1B (R&D systems, #AF-201), FLAG (SigmaAldrich, #F3165), NLRP1 (R&D systems, #AF6788), IL18 (Abcam ab207324), cleaved GSDMD-NT (Asp275) (Cell Signaling Technology, #36425), RPL31 (Abclonal, #WH162766), CASP7 (Abcam, ab255818), CASP8 (Abcam, ab32397), cleaved CASP3 (Cell Signaling Technology, #9664). All horseradish peroxidase (HRP)— conjugated secondary antibodies were purchased from Jackson Immunoresearch (goat anti-mouse IgG: 115-035-166; goat anti-rabbit IgG: 111-035-144; and donkey anti-goat IgG: 705-005-147). Blue-Native PAGE was carried out using the Native-PAGE system (ThermoFisher) with 10-20 μg of total lysate. For SDS-PAGE using whole cell lysates, cells were resuspended in tris-buffered saline 1% NP-40 with protease inhibitors (Thermo Scientific, #78430). Protein concentration was determined using the Bradford assay (Thermo Scientific, #23200) and […] of protein loaded, a part from cleaved GSDMD-NT visualisation where […] of protein was used. All primary antibodies were used at 250 ng/ml. Visualisation of ASC oligomerization was previously described (Robinson et al., 2020). For analysis of IL1β and IL-18 cleavage in the media by immunoblotting, samples were concentrated using filtered centrifugation (Merck, Amicon Ultra, #UFC5003BIK). Protein samples were run using immunoblotting, and then visualized using a ChemiDoc Imaging system (Bio-Rad). PhosTag SDS-PAGE was carried out using homemade 10% SDS-PAGE gel, with addition of Phos-tag Acrylamide (Wako Chemicals, AAL-107) to a final concentration of 30 μM and manganese chloride(II) (Sigma-Aldrich, #63535) to 60 μM.
Cells were directly harvested using Laemmli buffer, lysed with an ultrasonicator, and loaded into the Phos-tag gel to run. Once the run was completed, the polyacrylamide gel was washed in transfer buffer with 10 mM EDTA twice, subsequently washed without EDTA twice, blotted onto 0.45 μm PVDF membranes (Bio-rad), blocked with 3% milk, and incubated with primary and corresponding secondary antibodies.

human skin explants = test: UVB-induced IL1β in human skin explants; details: UVB 100 or 250 mJ/cm^2, harvest 24 hours later
Excerpt: Waste surgical skin tissues from abdomen and breast were collected with appropriate informed consent of the patients and sent to the Asian Skin Biobank (ASB worldwidewebdota-stardotedudotsg/sris/technology-platforms/asian-skin-biobank) at the Skin Research Institute of Singapore (SRIS) (under A*STAR IRB 2020-209). Fresh skin tissue was cleaned in solutions of HBSS with decreasing concentrations of Penicillin, Streptomycin and Fungizone. Then 8-mm skin biopsies were punched and submerged in culture media. Skin explants were immediately irradiated with UVB or treated with VbP.
For UVA and UVB irradiation experiments, cells were seeded 24 hours prior to irradiation, and washed once in phosphate buffered saline pH 7.4 before being exposed to indicated dose of irradiation using a BIO-SUN microprocessor controlled, cooled UV irradiation system (BIO-SUN, Vilber). After exposure, PBS was replaced by keratinocyte medium and cells were incubated for indicated time.
To measure secreted cytokine and chemokine levels a human IL1β enzyme linked immunosorbent assay (ELISA) kit (BD, #557953), human IL-18 ELISA kit (MBL, #7620) or an Immune Monitoring 65-Plex Human ProcartaPlex Panel (EPX650-10065-901) were used according to manufacturer's protocols. […]

3D organotypic skin = test: Secreted cytokines/chemokines from 3D organotypic skin (ELISA, Luminex); type: cell-based, human
Protocol: Organotypic cultures were generated by adapting a previously described protocol (Arnette et al., 2016). Briefly, 2 ml of collagen I (4 mg/ml; Corning, #354249) mixed with 7.5×10^5 human fibroblasts were allowed to polymerize over 1-m1 acellular collagen I in 6-well culture inserts (Falcon, #353102) placed in 6-well deep well plate (Falcon, #355467). After 24 hours, 1×10^6 primary human keratinocytes were seeded into the inserts and kept submerged in a 3:1 DMEM (Hyclone, #SH30243.01) and F12 (Gibco, #31765035) mixture with 10% FBS (Hyclone, #SV30160.03), 100 U/ml penicillin-streptomycin (Gibco, #15140122), 10 μM Y-27632 (Tocris, #1254), 10 ng/ml EGF (Sigma-Aldrich, #E9644), 1×10^−10 M cholera toxin (Enzo, #BML-G117-001), 0.4 μg/ml hydrocortisone (Sigma-Aldrich, #H0888), 0.0243 mg/ml adenine (Sigma-Aldrich, #A2786), 5 μg/ml insulin (Sigma-Aldrich, #12643), 5 μg/ml transferrin (Sigma-Aldrich, #T2036) and 2×10^−9 M 3,3′,5′-triiodo-L-thyronine (Sigma-Aldrich, #T6397). After another 24 hours, the organotypic cultures were then raised at the air-liquid interface and fed with the submerged media (without Y-27632 and EGF) below the insert to induce epidermal differentiation. The air-lifting medium was replaced every 2 days and treatments began 10-14 days after airlifting. Organotypic cultures were then harvested 24 hours after treatment and formalin fixed for 24 hours. […]

[1] = tested on: immortalized keratinocytes (N-TERT); test: Pyroptosis / apoptosis in N-TERT keratinocytes (morphology, ASC-GFP, PI, Annexin V, immunoblot); type: cell-based, human; details: for mode of cell death (apoptosis / pyroptosis): Annexin V staining and PI inclusion, immunoblot markers
Excerpt: as §1
N-TERT-ASC-GFP cells were seeded at a cell density of 3000 cells/well of a 96 black well plate (PerkinElmer, CellCarrier-96 Ultra, #6055300). The next morning cells were treated with chemicals for 6 h or treated in the evening for 24 h before staining. 1 hour before observing the cells on the microscope the cells were stained with 1 μg/ml dilution of propidium iodide (PI, Abcam #ab14083), 10 ng/ml dilution of Hoechst 33342 (Life Technologies, #H21492) or stained with Annexin V Alexa Flour 647 (Life technologies, #A23204) according to the manufacturer's protocol. Stained cells were then imaged on a high content screening microscope (Perkin Elmer Operetta CLS imaging system). Images were then stored and analyzed using the Harmony software (Version 6). Fluorescent and brightfield images acquired on the Operetta high content screening microscope were further analyzed using a scoring system to categorize the percentages of live, apoptotic and pyroptotic cells. For 3 fields of view per treatment the number of live cells per field was counted from the merge of the brightfield and ASC-GFP channels. Only cells which contained ASC-GFP throughout the cytoplasm and nucleus were classed as “live”. The number of pyroptotic cells was calculated using the merge of the brightfield and ASC-GFP channels. Only the cells with GFP specks were classed as “pyroptotic”. The number of apoptotic cells was calculated using the merge of the brightfield, ASC-GFP and Annexin V channels. Cells that were stained positive for Annexin V but without a GFP speck were classified as “apoptotic”. Images of ASC-GFP specks were acquired in 3 random fields in 4′,6-diaminidino-2-phenylindole (DAPI, 358 nm/461) and GFP (469 nm/525 nm) channels using the EVOS microscope (FL Auto M5000, #AM F5000) according to the manufacturer's protocol. […]

N-TERT cells = test: Secreted IL1β / inflammasome activation in N-TERT cells; type: cell-based, human; details: ZAKα KO N-TERT cells
Protocol: To measure secreted cytokine and chemokine levels a human IL1β enzyme linked immunosorbent assay (ELISA) kit (BD, #557953), human IL-18 ELISA kit (MBL, #7620) or an Immune Monitoring 65-Plex Human ProcartaPlex Panel (EPX650-10065-901) were used according to manufacturer's protocols. Further analysis of Luminex or ELISA profiling of samples was performed using heatmap and PCA analysis on Clustervis (biitdotcsdotutdotee/clustvis/) [Somani et al., Proceeding of SSIC (2019)].
as §1

ASC = test: Phosphorylation of inflammasome adaptor ASC; type: cell-based, human; details: data not shown
[2] = tested on: 3D human organotypic skin; test: 3D organotypic skin histology and cleaved GSDMD-NT immunostaining; type: cell-based; details: immunostaining
Protocol: Organotypic cultures were generated by adapting a previously described protocol (Arnette et al., 2016). Briefly, 2 ml of collagen I (4 mg/ml; Corning, #354249) mixed with 7.5×10^5 human fibroblasts were allowed to polymerize over 1-m1 acellular collagen I in 6-well culture inserts (Falcon, #353102) placed in 6-well deep well plate (Falcon, #355467). After 24 hours, 1×10^6 primary human keratinocytes were seeded into the inserts and kept submerged in a 3:1 DMEM (Hyclone, #SH30243.01) and F12 (Gibco, #31765035) mixture with 10% FBS (Hyclone, #SV30160.03), 100 U/ml penicillin-streptomycin (Gibco, #15140122), 10 μM Y-27632 (Tocris, #1254), 10 ng/ml EGF (Sigma-Aldrich, #E9644), 1×10^−10 M cholera toxin (Enzo, #BML-G117-001), 0.4 μg/ml hydrocortisone (Sigma-Aldrich, #H0888), 0.0243 mg/ml adenine (Sigma-Aldrich, #A2786), 5 μg/ml insulin (Sigma-Aldrich, #12643), 5 μg/ml transferrin (Sigma-Aldrich, #T2036) and 2×10^−9 M 3,3′,5′-triiodo-L-thyronine (Sigma-Aldrich, #T6397). After another 24 hours, the organotypic cultures were then raised at the air-liquid interface and fed with the submerged media (without Y-27632 and EGF) below the insert to induce epidermal differentiation. The air-lifting medium was replaced every 2 days and treatments began 10-14 days after airlifting. Organotypic cultures were then harvested 24 hours after treatment and formalin fixed for 24 hours. Fixed tissues were then embedded into wax for histological purposes.
For immunohistochemistry staining of cleaved N-terminal GSDMD a previously established protocol with modifications was used [Wang et al., Cell 180:941-955.e20 (2020)]. Briefly, 5 μm formalin fixed and paraffin embedded sections were deparaffinized and rehydrated through a series of alcohol. The sections were then rehydrated in an antigen retrieval buffer (Dako, Tris-EDTA, pH 9). Sections were then blocked in goat serum for 20 mins at RT before primary antibody incubated overnight at 4° C. Immunostaining was visualised using DAB substrate and chromogen detection kit (Dako, #K3468). Sections were then counterstained with Myer's Hematoxylin.

HB-EGF = HB-EGF expression by RNAseq after TNFα priming; type: cell-based, human; details: FKPM by RNAseq
Protocol: Library preparation, QC and high-throughput sequencing were provided by Macrogen, Singapore. RNA isolation and library preparation was carried out as previously described [Robinson et al., Science (2020)].

Chain of ZAKα (Q9NYL2 whole entry, the tested form may be a part): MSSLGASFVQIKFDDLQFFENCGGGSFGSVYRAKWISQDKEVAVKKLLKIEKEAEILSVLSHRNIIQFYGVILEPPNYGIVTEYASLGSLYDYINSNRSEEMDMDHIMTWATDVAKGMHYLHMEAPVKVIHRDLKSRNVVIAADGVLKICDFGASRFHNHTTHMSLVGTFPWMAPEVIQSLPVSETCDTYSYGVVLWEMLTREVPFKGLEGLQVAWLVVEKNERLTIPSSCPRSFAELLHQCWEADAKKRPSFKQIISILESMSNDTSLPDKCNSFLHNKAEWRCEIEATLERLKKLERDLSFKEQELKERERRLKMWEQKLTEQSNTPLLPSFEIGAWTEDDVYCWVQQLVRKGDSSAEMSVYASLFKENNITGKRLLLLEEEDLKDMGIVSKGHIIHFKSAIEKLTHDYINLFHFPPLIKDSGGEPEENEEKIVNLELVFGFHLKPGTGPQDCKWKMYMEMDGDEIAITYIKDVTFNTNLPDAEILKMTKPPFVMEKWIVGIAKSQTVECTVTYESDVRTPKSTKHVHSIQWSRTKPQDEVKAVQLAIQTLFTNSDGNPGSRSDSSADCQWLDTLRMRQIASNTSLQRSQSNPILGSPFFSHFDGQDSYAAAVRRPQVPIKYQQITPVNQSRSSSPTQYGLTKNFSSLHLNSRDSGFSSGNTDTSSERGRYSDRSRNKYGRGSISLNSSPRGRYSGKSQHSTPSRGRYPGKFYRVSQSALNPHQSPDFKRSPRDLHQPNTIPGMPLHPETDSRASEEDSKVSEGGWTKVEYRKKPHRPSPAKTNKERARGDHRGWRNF

## COc1cc(O)c2c(c1)/C=C/C[C@H](O)[C@H](O)C(=O)/C=C\C[C@H](C)OC2=O [5-Z-7-oxozeanol, 5Z-7-Oxozeaenol]
ZAKα
  potency against ZAKα compared with TAK1: almost the same potency as its reported target TAK1
NLRP1^DR
  effect on ANS-triggered NLRP1 hyperphosphorylation: can effectively block ANS-triggered NLRP1 hyperphosphorylation

## C=CC(=O)N1CCCC(c2ccnc(Nc3cc(C(=O)Nc4cc(-n5cnc(C)c5)cc(C(F)(F)F)c4)ccc3C)n2)C1 (stereo not drawn) [M443, 4-methyl-N-[3-(4-methylimidazol-1-yl)-5-(trifluoromethyl)phenyl]-3-[[4-(1-prop-2-enoylpiperidin-3-yl)pyrimidin-2-yl]amino]benzamide]
Human skin explants
  effect on UVB-induced IL1β / NLRP1 activation: reduction in UVB-induced IL1β; also recorded: effective at blocking UVB induced NLRP1 activation and IL1beta release
NLRP1^DR
  effect on ANS-triggered NLRP1 hyperphosphorylation: can effectively block ANS-triggered NLRP1 hyperphosphorylation

## COc1ccc(C[C@H](N)C(=O)N[C@H]2[C@@H](O)[C@H](n3cnc4c(N(C)C)ncnc43)O[C@@H]2CO)cc1 [PURO, Puromycin]
3D organotypic skin
  chemokine/cytokine profile versus untreated: very few cytokines/chemokines differed
[1]
  mode of cell death (apoptosis / pyroptosis): kills cells exclusively via apoptosis

## CC(C)[C@H](N)C(=O)N1CCC[C@H]1B(O)O [VbP, Talabostat]
N-TERT cells
  IL1β secretion and pyroptotic death in ZAKα KO cells: remained fully sensitive
ASC
  phosphorylation of ASC: not phosphorylated
[1]
  mode of cell death (apoptosis / pyroptosis): exclusively triggers pyroptosis
[1]; wild-type N-TERT cells, PI positive cells
  time to induce detectable pyroptosis: at least 5 hours
[2]
  cleaved GSDMD N-terminal fragment at the cell membrane: prominently enriched at the cell membrane

## TNFα
HB-EGF
  increased expression of DT entry receptor HB-EGF: > 5 fold
